What was measured:
[1] = tested on: VMRC-RCZ (Kidney Carcinoma); assay: Bliss excess, mean over the matrix (fraction); higher = more synergy
Procedure, shortened: (§1)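 Cell lines grown in DMEM/F12 or RPMI with 10% FBS were plated in 1536-well plates and held 24 hours at 37°C, 5% CO2 before 72 hours of exposure to two-drug dose matrices, with DMSO typically at 0.2%. CellTiter-Glo 2.0 luminescence gave viability, which was converted to inhibition. Vehicle wells were set to 0 and blank wells to 1. Combination Emax is the second-highest inhibition in the matrix, and Bliss excess is the observed combination effect minus the expected EA + EB − EA·EB, where EA and EB are the single-agent effects.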

[2] = tested on: MOG-G-CCM (Low Grade Glioma); assay: as above
Procedure, shortened: as §1

[3] = tested on: NCI-H929 (Plasma Cell Myeloma); assay: as above
Procedure, shortened: as §1

[4] = tested on: NCI-H2731 (Mesothelioma); assay: as above
Procedure, shortened: as §1

[5] = tested on: NCCIT (Other Solid Carcinomas); assay: as above
Procedure, shortened: as §1

[6] = tested on: NCI-H3122 (Lung Adenocarcinoma); assay: as above
Procedure, shortened: as §1

[7] = tested on: COR-L279 (Small Cell Lung Carcinoma); assay: as above
Procedure, shortened: as §1

[8] = tested on: KP-3 (Pancreatic Carcinoma); assay: as above
Procedure, shortened: as §1

[9] = tested on: T-T (Esophageal Squamous Cell Carcinoma); assay: as above
Procedure, shortened: as §1

[10] = tested on: OCI-AML3 (Acute Myeloid Leukemia); assay: as above
Procedure, shortened: as §1

[11] = tested on: KU812 (Chronic Myelogenous Leukemia); assay: as above
Procedure, shortened: as §1

[12] = tested on: NCI-H526 (Small Cell Lung Carcinoma); assay: as above
Procedure, shortened: as §1

[13] = tested on: SK-GT-4 (Esophageal Adenocarcinoma); assay: as above
Procedure, shortened: as §1

[14] = tested on: NCI-H520 (Squamous Cell Lung Carcinoma); assay: as above
Procedure, shortened: as §1

[15] = tested on: MN-60 (B-Lymphoblastic Leukemia); assay: as above
Procedure, shortened: as §1

[16] = tested on: SJSA-1 (Osteosarcoma); assay: as above
Procedure, shortened: as §1

[17] = tested on: ST486 (Burkitt's Lymphoma); assay: as above
Procedure, shortened: as §1

[18] = tested on: M059J (Glioblastoma); assay: as above
Procedure, shortened: as §1

[19] = tested on: DMS-114 (Small Cell Lung Carcinoma); assay: as above
Procedure, shortened: as §1

[20] = tested on: CW-2 (Colorectal Carcinoma); assay: as above
Procedure, shortened: as §1

[21] = tested on: KYSE-270 (Esophageal Squamous Cell Carcinoma); assay: as above
Procedure, shortened: as §1

[22] = tested on: VMRC-RCZ (Kidney Carcinoma); assay: combination Emax (second highest fraction inhibited in the dose matrix, 72 h); higher = more inhibition; extreme values may be limits of the assay
Procedure, shortened: as §1

[23] = tested on: MOG-G-CCM (Low Grade Glioma); assay: as above
Procedure, shortened: as §1

[24] = tested on: NCI-H929 (Plasma Cell Myeloma); assay: as above
Procedure, shortened: as §1

[25] = tested on: NCI-H2731 (Mesothelioma); assay: as above
Procedure, shortened: as §1

[26] = tested on: NCCIT (Other Solid Carcinomas); assay: as above
Procedure, shortened: as §1

[27] = tested on: NCI-H3122 (Lung Adenocarcinoma); assay: as above
Procedure, shortened: as §1

[28] = tested on: COR-L279 (Small Cell Lung Carcinoma); assay: as above
Procedure, shortened: as §1

[29] = tested on: KP-3 (Pancreatic Carcinoma); assay: as above
Procedure, shortened: as §1

[30] = tested on: T-T (Esophageal Squamous Cell Carcinoma); assay: as above
Procedure, shortened: as §1

[31] = tested on: OCI-AML3 (Acute Myeloid Leukemia); assay: as above
Procedure, shortened: as §1

[32] = tested on: KU812 (Chronic Myelogenous Leukemia); assay: as above
Procedure, shortened: as §1

[33] = tested on: NCI-H526 (Small Cell Lung Carcinoma); assay: as above
Procedure, shortened: as §1

[34] = tested on: SK-GT-4 (Esophageal Adenocarcinoma); assay: as above
Procedure, shortened: as §1

[35] = tested on: NCI-H520 (Squamous Cell Lung Carcinoma); assay: as above
Procedure, shortened: as §1

[36] = tested on: MN-60 (B-Lymphoblastic Leukemia); assay: as above
Procedure, shortened: as §1

[37] = tested on: SJSA-1 (Osteosarcoma); assay: as above
Procedure, shortened: as §1

[38] = tested on: ST486 (Burkitt's Lymphoma); assay: as above
Procedure, shortened: as §1

[39] = tested on: M059J (Glioblastoma); assay: as above
Procedure, shortened: as §1

[40] = tested on: DMS-114 (Small Cell Lung Carcinoma); assay: as above
Procedure, shortened: as §1

[41] = tested on: CW-2 (Colorectal Carcinoma); assay: as above
Procedure, shortened: as §1

[42] = tested on: KYSE-270 (Esophageal Squamous Cell Carcinoma); assay: as above
Procedure, shortened: as §1
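For Bliss excess, mean over the matrix in this document: after 72 h of two-drug dosing.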

N#Cc1cnc(Nc2cc(NC[C@H]3CNCCO3)c(C(F)(F)F)cn2)cn1 [SRA737] + CCc1c2c(nc3ccc(O)cc13)-c1cc3c(c(=O)n1C2)COC(=O)[C@]3(O)CC [SN-38] (first compound max 10 µM, 7x7, partner max 0.3 µM)
Bliss excess [1]: -0.0348
Bliss excess [2]: -0.0105
Bliss excess [3]: -0.0781
Bliss excess [4]: -0.005
Bliss excess [5]: 0.0294
Bliss excess [6]: -0.0454
Bliss excess [7]: -0.0153
Bliss excess [8]: -0.0089
Bliss excess [9]: 0.0451
Bliss excess [10]: -0.067
Bliss excess [11]: -0.0939
Bliss excess [12]: -0.0427
Bliss excess [13]: -0.0544
Bliss excess [14]: -0.0063
Bliss excess [15]: -0.0495
Bliss excess [16]: -0.0751
Bliss excess [17]: -0.0232
Bliss excess [18]: -0.0326
Bliss excess [19]: -0.0589
Bliss excess [20]: -0.0853
Bliss excess [21]: -0.0265
combination Emax [22]: 0.579
combination Emax [23]: 0.734
combination Emax [24]: 0.9
combination Emax [25]: 0.478
combination Emax [26]: 0.783
combination Emax [27]: 0.857
combination Emax [28]: 1
combination Emax [29]: 0.273
combination Emax [30]: 0.834
combination Emax [31]: 0.849
combination Emax [32]: 0.799
combination Emax [33]: 0.993
combination Emax [34]: 0.55
combination Emax [35]: 0.819
combination Emax [36]: 0.79
combination Emax [37]: 0.664
combination Emax [38]: 0.991
combination Emax [39]: 0.908
combination Emax [40]: 0.608
combination Emax [41]: 0.625
combination Emax [42]: 1

From the supplement of paper PMC11061612
